Laboratory results published in US20230398130A1, “METHODS AND COMPOSITIONS FOR DIFFERENTIATING STEM CELLS” (Massachusetts Institute of Technology, priority 2020, published 2023).

Assays:
[1] = test system: ISC-enriched organoids; test: Primary screen, 384-well 2.5-D organoid differentiation (ENR+CD, 6 days): carbachol-induced lysozyme secretion (LYZ.S); assay type: cell-based, murine; conditions: for Dose.FC.LYZ.S: FC vs plate median; for Z.LYZ.S: standard z score; for SSMD.LYZ.S: strictly standardized mean difference
Excerpt: (§1) High-throughput screening.

[2] = test system: ISC-enriched organoids; test: Primary screen, 384-well 2.5-D organoid differentiation (ENR+CD, 6 days, Target Selective Inhibitor Library, vs whole-plate median): ATP (CellTiter-Glo 3D, CTG); conditions: for Dose.FC.CTG: FC vs plate median; for SSMD.CTG: strictly standardized mean difference
[3] = test system: ISC-enriched organoids; test: Primary screen, 384-well 2.5-D organoid differentiation (ENR+CD, 6 days): basal lysozyme secretion (LYZ.NS); assay type: cell-based, murine; conditions: for Dose.FC.LYZ.NS: FC vs plate median; for SSMD.LYZ.NS: strictly standardized mean difference
Excerpt: as §1

[4] = primary screen, 1st of the 4 dose lines of the treatment (dose not given)
[5] = primary screen, 2nd of the 4 dose lines of the treatment (dose not given)
[6] = primary screen, 3rd of the 4 dose lines of the treatment (dose not given)
[7] = primary screen, 4th of the 4 dose lines of the treatment (dose not given)
[8] = Dose 0.08 uM, primary screen, standard z score
[9] = Dose 0.40 uM, primary screen, standard z score
[10] = Dose 2.00 uM, primary screen, standard z score
[11] = Dose 10.00 uM, primary screen, standard z score
[12] = Dose 0.08 uM, standard z score of FC
[13] = Dose 0.40 uM, standard z score of FC
[14] = Dose 2.00 uM, standard z score of FC
[15] = Dose 10.00 uM, standard z score of FC

| SMILES | Dose.FC.LYZ.S ([1]; Dose 0.08 uM, primary screen) [log 2 fold change] | Dose.FC.LYZ.S ([1]; Dose 0.40 uM, primary screen) [log 2 fold change] | Dose.FC.LYZ.S ([1]; Dose 2.00 uM, primary screen) [log 2 fold change] | Dose.FC.LYZ.S ([1]; Dose 10.00 uM, primary screen) [log 2 fold change] | Dose.FC.CTG ([2]; Dose 0.08 uM, primary screen) [log 2 fold change] | Z.CTG [2, 8] | Dose.FC.CTG ([2]; Dose 0.40 uM, primary screen) [log 2 fold change] | Z.CTG [2, 9] | Dose.FC.CTG ([2]; Dose 2.00 uM, primary screen) [log 2 fold change] | Z.CTG [2, 10] | Dose.FC.CTG ([2]; Dose 10.00 uM, primary screen) [log 2 fold change] | Z.CTG [2, 11] | Dose.FC.LYZ.NS ([3]; Dose 0.08 uM, primary screen) [log 2 fold change] | Z.LYZ.NS [3, 8] | Dose.FC.LYZ.NS ([3]; Dose 0.40 uM, primary screen) [log 2 fold change] | Z.LYZ.NS [3, 9] | Dose.FC.LYZ.NS ([3]; Dose 2.00 uM, primary screen) [log 2 fold change] | Z.LYZ.NS [3, 10] | Dose.FC.LYZ.NS ([3]; Dose 10.00 uM, primary screen) [log 2 fold change] | Z.LYZ.NS [3, 11] | other results |
| --- | --- | --- | --- | --- | --- | --- | --- | --- | --- | --- | --- | --- | --- | --- | --- | --- | --- | --- | --- | --- | --- |
| O=C(O)CNC(=O)c1c(O)c2ccccc2n(Cc2ccccc2)c1=O [IOX2] | 0.047 | 0.071 | 0.001 | −0.049 | 0.149 | 0.356 | 0.078 | 0.185 | 0.097 | 0.232 | 0.001 | 0.002 | 0.029 | 0.254 | 0.028 | 0.246 | 0.043 | 0.376 | −0.045 | −0.388 | Z.LYZ.S [1, 4]: 0.305; Z.LYZ.S [1, 5]: 0.456; Z.LYZ.S [1, 6]: 0.005; Z.LYZ.S [1, 7]: −0.314; SSMD.LYZ.S [1, 4]: 0.359; SSMD.LYZ.S [1, 5]: 0.428; SSMD.LYZ.S [1, 6]: 0.006; SSMD.LYZ.S [1, 7]: −0.298; SSMD.CTG [2, 4]: 0.501; SSMD.CTG [2, 5]: 0.264; SSMD.CTG [2, 6]: 0.287; SSMD.CTG [2, 7]: 0.003; SSMD.LYZ.NS [3, 4]: 0.296; SSMD.LYZ.NS [3, 5]: 0.182; SSMD.LYZ.NS [3, 6]: 0.408; SSMD.LYZ.NS [3, 7]: −0.420 |
| Oc1ccc2ccccc2c1SSc1c(O)ccc2ccccc12 [IPA-3] | 0.064 | −0.031 | 0.067 | −0.054 | 0.219 | 0.524 | −0.332 | −0.793 | −0.084 | −0.202 | −0.054 | −0.128 | 0.004 | 0.031 | 0.003 | 0.028 | −0.001 | −0.010 | −0.021 | −0.186 | Z.LYZ.S [1, 4]: 0.413; Z.LYZ.S [1, 5]: −0.202; Z.LYZ.S [1, 6]: 0.431; Z.LYZ.S [1, 7]: −0.347; SSMD.LYZ.S [1, 4]: 0.356; SSMD.LYZ.S [1, 5]: −0.184; SSMD.LYZ.S [1, 6]: 0.324; SSMD.LYZ.S [1, 7]: −0.305; SSMD.CTG [2, 4]: 0.818; SSMD.CTG [2, 5]: −0.408; SSMD.CTG [2, 6]: −0.316; SSMD.CTG [2, 7]: −0.172; SSMD.LYZ.NS [3, 4]: 0.027; SSMD.LYZ.NS [3, 5]: 0.026; SSMD.LYZ.NS [3, 6]: −0.008; SSMD.LYZ.NS [3, 7]: −0.175 |
| CCOC(=O)c1cncn1[C@H](C)c1ccccc1 [Etomidate] |  |  |  |  |  |  |  |  |  |  |  |  |  |  |  |  |  |  |  |  | Dose.FC.LYZ.S ([1]; Dose 0.08 uM, ENR+CD, 6 days): 0.053 log 2 fold change; Dose.FC.LYZ.S ([1]; Dose 0.40 uM, ENR+CD, 6 days): 0.048 log 2 fold change; Dose.FC.LYZ.S ([1]; Dose 2.00 uM, ENR+CD, 6 days): 0.054 log 2 fold change; Dose.FC.LYZ.S ([1]; Dose 10.00 uM, ENR+CD, 6 days): −0.008 log 2 fold change; Dose.FC.CTG ([2]; Dose 0.08 uM, ENR+CD, 6 days): 0.084 log 2 fold change; Z.CTG [2, 12]: 0.201; Dose.FC.CTG ([2]; Dose 0.40 uM, ENR+CD, 6 days): 0.006 log 2 fold change; Z.CTG [2, 13]: 0.014; Dose.FC.CTG ([2]; Dose 2.00 uM, ENR+CD, 6 days): 0.163 log 2 fold change; Z.CTG [2, 14]: 0.389; Dose.FC.CTG ([2]; Dose 10.00 uM, ENR+CD, 6 days): 0.039 log 2 fold change; Z.CTG [2, 15]: 0.094; Dose.FC.LYZ.NS ([3]; Dose 0.08 uM, ENR+CD, 6 days): −0.008 log 2 fold change; Z.LYZ.NS [3, 12]: −0.065; Dose.FC.LYZ.NS ([3]; Dose 0.40 uM, ENR+CD, 6 days): 0.037 log 2 fold change; Z.LYZ.NS [3, 13]: 0.318; Dose.FC.LYZ.NS ([3]; Dose 2.00 uM, ENR+CD, 6 days): 0.015 log 2 fold change; Z.LYZ.NS [3, 14]: 0.131; Dose.FC.LYZ.NS ([3]; Dose 10.00 uM, ENR+CD, 6 days): −0.001 log 2 fold change; Z.LYZ.NS [3, 15]: −0.010 |
| CCOC(=O)CCNc1cc(N2CCc3ccccc3CC2)nc(-c2ccccn2)n1.Cl [GSK J4 HCl] | 0.086 | 0.109 | 0.041 | −0.002 | 0.124 | 0.297 | 0.099 | 0.237 | 0.002 | 0.006 | 0.233 | 0.558 | 0.058 | 0.508 | 0.050 | 0.433 | 0.018 | 0.153 | −0.001 | −0.006 |  |
